{"source": "ChEMBL document CHEMBL4476874", "about": "“Compounds for the modulation of myc activity” (2018)", "biological_target": "Myc proto-oncogene protein (Homo sapiens, UniProt P01106)", "sequence (P01106 whole entry)": "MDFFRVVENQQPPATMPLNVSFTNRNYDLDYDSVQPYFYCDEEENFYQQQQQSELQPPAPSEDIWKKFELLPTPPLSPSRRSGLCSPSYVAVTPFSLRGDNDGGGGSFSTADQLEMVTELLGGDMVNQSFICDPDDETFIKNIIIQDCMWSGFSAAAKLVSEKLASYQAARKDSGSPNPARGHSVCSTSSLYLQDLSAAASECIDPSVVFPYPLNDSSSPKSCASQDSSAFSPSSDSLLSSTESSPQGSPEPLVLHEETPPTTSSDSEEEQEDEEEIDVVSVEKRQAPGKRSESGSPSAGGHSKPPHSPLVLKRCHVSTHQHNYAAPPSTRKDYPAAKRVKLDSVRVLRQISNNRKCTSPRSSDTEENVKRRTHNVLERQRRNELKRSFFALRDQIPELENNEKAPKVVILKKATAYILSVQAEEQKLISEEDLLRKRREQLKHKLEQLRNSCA", "experiment": "Inhibition of human c-Myc assessed as reduction in c-Myc/Max/Ebox DNA complex formation using pre-formed complex of c-Myc and biotinylated DNA containing single Ebox-sequence followed by compound addition and further addition of his6-tagged c-Max and incubated for 2 hrs by AlphaScreen assay", "data": [{"smiles": "COCCNCCC(=O)Nc1sc2c(c1-c1nc3cc(-c4ccc(O)c(F)c4)ccc3s1)CCNC2", "values": [{"measurement": "IC50", "result": "> 10", "unit": "µM"}]}, {"smiles": "COCCNCCC(=O)Nc1sc2c(c1-c1nc3ccc(-c4ccnc5[nH]ccc45)cc3s1)CCNC2", "values": [{"measurement": "IC50", "result": "> 10", "unit": "µM"}]}, {"smiles": "COCCNCCC(=O)Nc1sc2c(c1-c1nc3ccc(-c4cnc(N)c(C(F)(F)F)c4)cc3s1)CCNC2", "values": [{"measurement": "IC50", "result": "> 10", "unit": "µM"}]}, {"smiles": "COCCNCCC(=O)Nc1sc2c(c1-c1nc3ccc(-c4ccc(OC)nc4C)cc3s1)CCNC2", "values": [{"measurement": "IC50", "result": "> 10", "unit": "µM"}]}, {"smiles": "COCCNCCC(=O)Nc1sc2c(c1-c1nc3cc(-c4ccnc5[nH]ccc45)ccc3s1)CCNC2", "values": [{"measurement": "IC50", "result": "1 to 10", "unit": "µM"}]}, {"smiles": "COCCNCCC(=O)Nc1sc2c(c1-c1nc3ccc(-c4ccc(C(=O)OC)nc4)cc3s1)CCNC2", "values": [{"measurement": "IC50", "result": "1 to 10", "unit": "µM"}]}, {"smiles": "COCCNCCC(=O)Nc1sc2c(c1-c1nc3ccc(-c4ccc(OC)nc4)cc3s1)CCNC2", "values": [{"measurement": "IC50", "result": "1 to 10", "unit": "µM"}]}, {"smiles": "COc1cccc(-c2ccc3sc(-c4c(NC(=O)CCNC(C)C)sc5c4CCNC5)nc3c2)c1", "values": [{"measurement": "IC50", "result": "1 to 10", "unit": "µM"}]}, {"smiles": "COCCNCCC(=O)Nc1sc2c(c1-c1nc3cc(-c4ccc(OC)c(OC)c4)ccc3s1)CCNC2", "values": [{"measurement": "IC50", "result": "> 10", "unit": "µM"}]}, {"smiles": "COCCNCCC(=O)Nc1sc2c(c1-c1nc3ccc(-c4ccnc(C(F)(F)F)c4)cc3s1)CCNC2", "values": [{"measurement": "IC50", "result": "> 10", "unit": "µM"}]}, {"smiles": "COCCNCCC(=O)Nc1sc2c(c1-c1nc3cc(-c4ccc5ncccc5c4)ccc3s1)CCNC2", "values": [{"measurement": "IC50", "result": "> 10", "unit": "µM"}]}, {"smiles": "COCCNCCC(=O)Nc1sc2c(c1-c1nc3cc(-c4ccc5c(c4)NC(=O)CO5)ccc3s1)CCNC2", "values": [{"measurement": "IC50", "result": "1 to 10", "unit": "µM"}]}, {"smiles": "COCCNCCC(=O)Nc1sc2c(c1-c1nc3ccc(-c4ccc5cnn(C)c5c4)cc3s1)CCNC2", "values": [{"measurement": "IC50", "result": "> 10", "unit": "µM"}]}, {"smiles": "COCCNCCC(=O)Nc1sc2c(c1-c1nc3cc(-c4cccc5[nH]ncc45)ccc3s1)CCNC2", "values": [{"measurement": "IC50", "result": "1 to 10", "unit": "µM"}]}, {"smiles": "CC(C)NCCC(=O)Nc1sc2c(c1-c1nc3cc(-c4nn[nH]n4)ccc3s1)CCNC2", "values": [{"measurement": "IC50", "result": "< 0.3", "unit": "µM"}]}, {"smiles": "COc1ccc(-c2ccc3sc(-c4c(NC(=O)CCNC(C)C)sc5c4CCNC5)nc3c2)cc1", "values": [{"measurement": "IC50", "result": "< 0.3", "unit": "µM"}]}, {"smiles": "COCCNCCC(=O)Nc1sc2c(c1-c1nc3ccc(-c4c(F)cccc4F)cc3s1)CCNC2", "values": [{"measurement": "IC50", "result": "> 10", "unit": "µM"}]}, {"smiles": "COCCNCCC(=O)Nc1sc2c(c1-c1nc3ccc(-c4cccc(C#N)c4)cc3s1)CCNC2", "values": [{"measurement": "IC50", "result": "1 to 10", "unit": "µM"}]}, {"smiles": "COCCNCCC(=O)Nc1sc2c(c1-c1nc3cc(-c4ccc5c(c4)OCO5)ccc3s1)CCNC2", "values": [{"measurement": "IC50", "result": "> 10", "unit": "µM"}]}, {"smiles": "COCCNCCC(=O)Nc1sc2c(c1-c1nc3cc(-c4ccccc4O)ccc3s1)CCNC2", "values": [{"measurement": "IC50", "result": "1 to 10", "unit": "µM"}]}, {"smiles": "COCCNCCC(=O)Nc1sc2c(c1-c1nc3ccc(-c4ccncc4Cl)cc3s1)CCNC2", "values": [{"measurement": "IC50", "result": "> 10", "unit": "µM"}]}, {"smiles": "CC(NCCC(=O)Nc1sc2c(c1-c1nc3ccccc3s1)CCN(C(C)C)C2)c1ccncc1", "note": "(stereo not given)", "values": [{"measurement": "IC50", "result": "1 to 10", "unit": "µM"}]}, {"smiles": "COCCNCCC(=O)Nc1sc2c(c1-c1nc3ccc(-c4cccc5cccnc45)cc3s1)CCNC2", "values": [{"measurement": "IC50", "result": "> 10", "unit": "µM"}]}, {"smiles": "COCCNCCC(=O)Nc1sc2c(c1-c1nc3ccc(-c4cnccc4C)cc3s1)CCNC2", "values": [{"measurement": "IC50", "result": "> 10", "unit": "µM"}]}, {"smiles": "COc1cccc(NCCC(=O)Nc2sc3c(c2-c2nc4ccccc4s2)CCN(C(C)C)C3)c1", "values": [{"measurement": "IC50", "result": "1 to 10", "unit": "µM"}]}, {"smiles": "CNC(=O)Nc1ccc(-c2ccc3sc(-c4c(NC(=O)CCNCCOC)sc5c4CCNC5)nc3c2)cc1", "values": [{"measurement": "IC50", "result": "1 to 10", "unit": "µM"}]}, {"smiles": "COCCNCCC(=O)Nc1sc2c(c1-c1nc3ccc(-c4ccc(O)c(F)c4)cc3s1)CCNC2", "values": [{"measurement": "IC50", "result": "> 10", "unit": "µM"}]}, {"smiles": "COCCNCCC(=O)Nc1sc2c(c1-c1nc3ccc(-c4cccc5[nH]ncc45)cc3s1)CCNC2", "values": [{"measurement": "IC50", "result": "1 to 10", "unit": "µM"}]}, {"smiles": "COCCNCCC(=O)Nc1sc2c(c1-c1nc3ccc(-c4ccc(C)nc4OC)cc3s1)CCNC2", "values": [{"measurement": "IC50", "result": "> 10", "unit": "µM"}]}, {"smiles": "COCCNCCC(=O)Nc1sc2c(c1-c1nc3ccc(-c4cncc(OCCOC)c4)cc3s1)CCNC2", "values": [{"measurement": "IC50", "result": "> 10", "unit": "µM"}]}, {"smiles": "COCCNCCC(=O)Nc1sc2c(c1-c1nc3ccc(-c4ccccc4Cl)cc3s1)CCNC2", "values": [{"measurement": "IC50", "result": "> 10", "unit": "µM"}]}, {"smiles": "COCCNCCC(=O)Nc1sc2c(c1-c1nc3cc(-c4cccnc4OC)ccc3s1)CCNC2", "values": [{"measurement": "IC50", "result": "> 10", "unit": "µM"}]}, {"smiles": "O=C(CC1COCCN1)Nc1sc2c(c1-c1nc3ccccc3s1)CCNC2", "note": "(stereo not given)", "values": [{"measurement": "IC50", "result": "0.3 to 1", "unit": "µM"}]}, {"smiles": "COCCNCCC(=O)Nc1sc2c(c1-c1nc3ccc(-c4cc5cccc(OC)c5[nH]4)cc3s1)CCNC2", "values": [{"measurement": "IC50", "result": "1 to 10", "unit": "µM"}]}, {"smiles": "COCCNCCC(=O)Nc1sc2c(c1-c1nc3cc(-c4ccncc4Cl)ccc3s1)CCNC2", "values": [{"measurement": "IC50", "result": "> 10", "unit": "µM"}]}, {"smiles": "COCCNCCC(=O)Nc1sc2c(c1-c1nc3ccc(-c4ccc(F)nc4F)cc3s1)CCNC2", "values": [{"measurement": "IC50", "result": "> 10", "unit": "µM"}]}, {"smiles": "COCCNCCC(=O)Nc1sc2c(c1-c1nc3ccc(-c4ccccc4O)cc3s1)CCNC2", "values": [{"measurement": "IC50", "result": "> 10", "unit": "µM"}]}, {"smiles": "COCCNCCC(=O)Nc1sc2c(c1-c1nc3ccc(-c4cccc(C(=O)N5CCN(C)CC5)c4)cc3s1)CCNC2", "values": [{"measurement": "IC50", "result": "0.3 to 1", "unit": "µM"}]}, {"smiles": "CC(C)N1CCc2c(sc(NC(=O)CCNc3cccc(F)c3)c2-c2nc3ccccc3s2)C1", "values": [{"measurement": "IC50", "result": "> 10", "unit": "µM"}]}, {"smiles": "COCCNCCC(=O)Nc1sc2c(c1-c1nc3cc(-c4ccc(C)nc4OC)ccc3s1)CCNC2", "values": [{"measurement": "IC50", "result": "1 to 10", "unit": "µM"}]}, {"smiles": "CCC(C)N(CCC(=O)Nc1sc2c(c1-c1nc3ccccc3s1)CCN(C(C)C)C2)C(=O)OC(C)(C)C", "note": "(stereo not given)", "values": [{"measurement": "IC50", "result": "> 10", "unit": "µM"}]}, {"smiles": "CC(C)NCCC(=O)Nc1sc2c(c1-c1nc3cc(C4=CCNCC4)ccc3s1)CCNC2", "values": [{"measurement": "IC50", "result": "< 0.3", "unit": "µM"}]}, {"smiles": "COCCNCCC(=O)Nc1sc2c(c1-c1nc3cc(-c4cc(F)cnc4OC)ccc3s1)CCNC2", "values": [{"measurement": "IC50", "result": "1 to 10", "unit": "µM"}]}, {"smiles": "COCCNCCC(=O)Nc1sc2c(c1-c1nc3ccc(-c4ccc5ncccc5c4)cc3s1)CCNC2", "values": [{"measurement": "IC50", "result": "> 10", "unit": "µM"}]}, {"smiles": "COCCNCCC(=O)Nc1sc2c(c1-c1nc3ccc(-c4ccc(C(=O)N5CCOCC5)cc4)cc3s1)CCNC2", "values": [{"measurement": "IC50", "result": "0.3 to 1", "unit": "µM"}]}]}
